Publication PMC11956017, “Design of Benzyl-triazolopyrimidine-Based NADPH Oxidase Inhibitors Leads to the Discovery of a Potent Dual Covalent NOX2/MAOB Inhibitor” (Journal of Medicinal Chemistry, 2025)
“Also recorded” adds a separate entry of the source.

Experiments:
[1] = test system: dehydrogenase domain of csNOX5; assay: NADPH depletion assay on csNOX5 dehydrogenase domain; format: biochemical, Cylindrospermum stagnale; details: 10 μM inhibitor; 1 μM purified protein, 250 μM NADPH
Method: A series of derivatives were synthesized and tested at 10 μM against the dehydrogenase domain of NOX5 from Cylindrospermum stagnale (C. stagnale, CsNOX5; Figure 2B).
The NADPH depletion assay for IC50 determinations was performed as described[10] with modifications for covalent inhibitors, which require longer incubation times. Briefly, the catalytic activity was measured by monitoring the absorbance at 340 nm with a Cary 100 UV–vis spectrophotometer (Varian). A 1 μM portion of purified protein was added in a final volume of 130 μL of 50 mM HEPES pH 7.5 and supplemented with 300 μM FAD. Inhibitors were added at varying concentrations and incubated for 1 h at 25 °C.

Purified human NOX2 = target: T1, Purified human NOX2 (Homo sapiens, UniProt P04839); assay: Purified human NOX2-p22phox, NADPH depletion assay; format: biochemical; details: for IC50: 200 nM NOX2, 240 μM NADPH, activated
T1 construct: NOX2 was expressed as native protein in X-CGD PLB-985 cells transduced with the RD114 pseudotyped MFGS-NOX2 vector; made in house; host or cells: X-CGD PLB-985 cells transduced with MFGS-NOX2; Cytosolic proteins made in E. coli
Method: The NADPH depletion assay on human NOX2 for IC50 determinations was performed as described[40],[42] with variations for covalent inhibition. Briefly, the catalytic activity was measured by monitoring the absorbance at 340 nm with a Cary 100 UV–vis spectrophotometer (Varian). A 200 nM purified NOX2-p22^phox heterodimer was added to a 200 μL reaction mix containing a 65 mM sodium phosphate buffer (pH 7.0), 50 μM FAD, 130 μM LiDS, and 1 μM recombinant p67^phox, p47^phox, and Rac1 Q61L. Inhibitors were added at varying concentrations (7 nM–200 μM) and incubated for 1 h at 25 °C. The reaction was started by the addition of 240 μM NADPH.

human MAOA = target: T2, human MAOA (Homo sapiens, UniProt P21397); assay: Purified MAOA, Amplex Red/horseradish peroxidase coupled assay; format: biochemical; details: 70 nM MAOA, 1 mM kynuramine
T2 construct: made in house; host or cells: Pichia pastoris
T2 sequence (P21397 1-527): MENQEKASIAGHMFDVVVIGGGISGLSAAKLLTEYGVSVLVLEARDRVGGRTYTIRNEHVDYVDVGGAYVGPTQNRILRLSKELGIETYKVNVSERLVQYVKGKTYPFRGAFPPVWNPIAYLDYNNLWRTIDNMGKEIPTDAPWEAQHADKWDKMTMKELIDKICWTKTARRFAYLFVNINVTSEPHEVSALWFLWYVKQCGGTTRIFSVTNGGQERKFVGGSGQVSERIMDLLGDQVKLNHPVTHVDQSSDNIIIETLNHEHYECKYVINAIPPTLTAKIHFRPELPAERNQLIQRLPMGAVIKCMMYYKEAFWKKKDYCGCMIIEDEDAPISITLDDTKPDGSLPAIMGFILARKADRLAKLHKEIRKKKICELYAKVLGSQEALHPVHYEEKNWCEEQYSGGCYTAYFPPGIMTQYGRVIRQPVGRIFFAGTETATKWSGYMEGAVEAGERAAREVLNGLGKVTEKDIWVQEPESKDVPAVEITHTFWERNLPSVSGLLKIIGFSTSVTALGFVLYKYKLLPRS
Method: IC50 values on human MAOA and human MAOB were determined using the Amplex Red/horseradish peroxidase coupled assay. […] Measurements were performed using a ClarioStar plate reader (excitation 572 nm and emission 583 nm) (BMG Labtech). IC50 values were obtained by fitting the percentage of inhibition versus log(inhibitor concentration) using GraphPad software 7.0. The covalent modification of the flavin upon the reaction with the propargylamine-containing inhibitors was monitored spectrophotometrically using a diode array UV/visible spectrophotometer (Agilent Technologies). […] The cofactor covalent modification was monitored over time following the shift of the enzyme-bound flavin (peaks at 370 and 456 nm) to 410 nm (ε410 = 23,500 M^–1 cm^–1) (Figure S10).

NOX2 [2] = target: T3, NOX2 (Homo sapiens, UniProt P04839); assay: In cellulo NOX2 activity in NOX2-overexpressing PLB-985 cells, cytochrome c reduction; format: cell-based; parameters: NOX2 was expressed as native protein in X-CGD PLB-985 cells transduced with the RD114 pseudotyped MFGS-NOX2 vector; expressed in transfected cells; host or cells: X-CGD PLB-985 cells transduced with MFGS-NOX2 vector; details: for IC50: intact PMA-stimulated cells, cytochrome c 200 μM
Method: Measurement of human NOX2 activity in cells was performed by a cytochrome c (200 μM) reduction assay. Superoxide production of intact PLB-985 cells (3 × 10^5 cells) was measured after PMA stimulation (5 μM) as reported.[40],[42] The compounds (0.04–40 μM) were added to the prestimulated cells and incubated for 1 h at 37 °C and 5% CO2, 120 rpm (New Brunswick S41i incubator shaker, Eppendorf). The absorbance at 550 nm was followed at 37 °C over a time course of 20 min in a ClarioStar plate reader (BMG Labtech).

NOX2 [3] = target: T3, NOX2; assay: Human NOX2 isolated membranes, MCLA assay; format: biochemical; parameters: NOX2 was expressed as native protein in X-CGD PLB-985 cells transduced with the RD114 pseudotyped MFGS-NOX2 vector; expressed in transfected cells; host or cells: X-CGD PLB-985 cells transduced with MFGS-NOX2; isolated membranes; Cytosolic proteins made in E. coli; details: for IC50: membrane-embedded, 240 μM NADPH, read-out: IC50 on human NOXs, NOX2 (MCLA)
Method: IC50 determinations were performed as described, with the same aforementioned modifications for covalent inhibition. Briefly, 20 μg of NOX2-p22^phox membranes was added to a reaction mix with a 65 mM sodium phosphate buffer (pH 7.0), 0.5 μM FAD, 130 μM LiDS, 160 nM p67^phox, p47^phox, Rac1 Q61L, and 1 μM MCLA or 200 μM bovine cytochrome c. The estimated final protein concentration based on the heme’s absorbance was 60 nM. Compounds were incubated for 1 h at 25 °C, at varying concentrations. The reaction started by adding 240 μM NADPH, and measurements were taken by using a GloMax plate reader (Promega; MCLA) or a Cary 100 UV–vis spectrophotometer (Varian; cytochrome c).

| % INHIBITION csNOX5 DEHYDROGENASE DOMAIN [1] [%] | IC50 (Purified human NOX2) [µM] | IC50 (human MAOA) [µM] | IC50 Purified MAOA (human MAOA) | IC50 (NOX2 [2]) [µM] | IC50 (NOX2 [3]) [µM] | potency on purified NOX2 relative to VAS2870 (more potent) (Purified human NOX2; purified NOX2) | potency against NOX2 in cellulo relative to VAS2870 (more potent) (NOX2 [2]; PLB-985 cells) [fold] | potency against NOX2 relative to VAS2870 (more powerful) (NOX2 [3]; NOX2 membranes) [fold] | Compound |
| --- | --- | --- | --- | --- | --- | --- | --- | --- | --- |
| 95.6 ± 0.1 | 3.3 ± 0.06 | > 100 | ineffective; also recorded: Not detected | 2.81 ± 0.88 | 2.8 ± 0.05 |  |  |  | CCCNC(=O)c1ccc(Cn2nnc3c(Sc4nc5ccccc5o4)ncnc32)cc1 [Compound 8a, (4-((7-Benzo[d]oxazol-2-yl-thio)-3H-[1,2,3]triazole[4,5-d]pyrimidin-3-yl)methyl)-N-(propyl)benzamide] |
| 94.6 ± 1.0 | 20.1 ± 0.5 | 41.6 ± 3.7 |  | 17.6 ± 3.4 | 17.3 ± 2.6 |  |  |  | C#CCNC(=O)c1ccc(Cn2nnc3c(Sc4nc5ccccc5o4)ncnc32)cc1 [Compound 8b, (4-((7-Benzo[d]oxazol-2-yl-thio)-3H-[1,2,3]triazole[4,5-d]pyrimidin-3-yl)methyl)-N-(prop-2-in-1-yl)benzamide] |
| 67.3 ± 4.6 | 0.155 ± 0.03 | 59 ± 5.9 |  | 0.135 ± 0.02 | 0.567 ± 0.2 | over 20 fold | 2 | 2 | C#CCN(C)Cc1ccc(Cn2nnc3c(Sc4nc5ccccc5o4)ncnc32)cc1 [Compound 9a, N-(4-((7-(Benzo[d]oxazol-2-ylthio)-3H-[1,2,3]triazolo[4,5-d]pyrimidin-3-yl)methyl)benzyl)-N-methylprop-2-yn-1-amine] |
